This is an account of results in article PMC9232612, “A phase 1b randomised controlled trial of a glucagon-like peptide-1 and glucagon receptor dual agonist IBI362 (LY3305677) in Chinese patients with type 2 diabetes” (Nature Communications, 2022).

“And” between values parts separate entries of the source, which are not always exact repeats. Equal entries are not always repeated.

Assay type in all cases: in vivo, human
For series [1], the system named is Chinese patients with T2D. In words: Alanine aminotransferase and aspartate aminotransferase levels. Conditions: 1.5 mg once weekly. From the text:
Primary outcomes of the study were the safety and tolerability of IBI362. Safety assessment included adverse events, physical examinations, laboratory tests (including lipase, amylase and calcitonin level measures), vital signs and 12-lead electrocardiogram. Adverse events were categorized according to the Medical Dictionary for Regulatory Activities system organ classes (SOCs) and preferred terms. Treatment-emergent adverse events (TEAEs) were monitored from the time of informed consent to the safety follow-up period. The severity of TEAEs (mild, moderate or severe) and the association between an event and the study drug were assessed by investigators based on pre-specified criteria.
CFB in ALT (U/L), mean (SD)
CFB in AST (U/L), mean (SD)
Fig. S2: Change from baseline in ALT and AST levels over time.
a. CFB in ALT levels over time. b. CFB in AST levels over time. Data are plotted as means +/- SD.
ALT = alanine aminotransferase; AST = aspartate aminotransferase; CFB = change from baseline;
SD = standard deviation. Source data are provided as a Source Data file. […]

The test system of series [2] is Chinese patients with T2D. In words: Mixed-meal tolerance test (MTT): plasma glucose and glucose AUC0-4 h. Conditions: 1.5 mg once weekly, n=6. On the procedure:
(§1) HbA1c (2200101, Bio-Rad, USA), blood glucose (05168791190, Roche Diagnostics, Germany), insulin (12017547122, Roche Diagnostics, Germany), C peptide (03184897190, Roche Diagnostics, Germany), total GLP-1 (GLP-1 [7–36] amide and its metabolite, GLP-1 [9–36] amide, 10-1278-01, Mercodia AB, Sweden) and OXM (AL-139, AnshLabs, USA) tests were performed according to the manufactures’ instruction manuals in a central laboratory (KingMed Diagnostics, Guangzhou, China). HbA1c was measured using a Bio-rad D-100 Haemoglobin Testing System (Bio-rad). Blood glucose was measured using a Roche Cobas c702 analyser (Roche Diagnostics). Insulin and C peptide were measured using a Roche […] analyser (Roche Diagnostics). GLP-1 and OXM were measured using a Tecan Infinite M Plex microplate reader (TECAN).
Standard non-compartmental pharmacokinetics methods were used to analyze IBI362 plasma concentration data using Pkanalix 2020R1 (Lixoft, Antony, France). Secondary efficacy outcomes included change from baseline to week 12 in HbA1c, fasting plasma glucose (FPG), fasting insulin levels, change from baseline to week 12 in post-mixed-meal tolerance test (post-MTT) glucose, insulin, C peptide, GLP-1 and OXM levels, as well as seven-point self-measured blood glucose (SMBG) profile.
The analyses for change from baseline in HbA1c, FPG, post-MTT glucose AUC0–4 h and body weight were performed using the mixed-effect model for repeated measures (MMRM) with least-squares means and standard error provided. The MMRM included the corresponding baseline value, treatment, visit and treatment-by-visit as fixed effects and patient as a random effect. Mean change or mean percent change from baseline were analysed using a restricted maximum likelihood (REML)‐based repeated measures approach in combination with the Newton Raphson Algorithm. The fix effect of visit was fitted as a repeated effect and an unstructured covariance matrix was used. In case of non-converge, matrix like Variance Components and Compound Symmetry will be tested in a subsequent order until model‐convergence is achieved. The Kenward-Roger degree of freedom was used in estimating fixed effects. No missing data imputation was conducted. For HbA1c, FPG and body weight, point estimate of treatment difference versus placebo and 90% CI were provided for each IBI362 dose group and the dulaglutide group, with nominal p values. […]
(§2) 3. Standard meal test (MTT) collection measures included: insulin, C-peptide, plasma glucose, glucagon, endogenous OXM, and endogenous GLP-1. The sampling points include: fasting, 30 min, 1h, 2h, 3h and 4h.
(§3) A total of 9 mL blood will be collected from each blood collection point. See the manual of the central laboratory for the detailed operation process. Fasting state refers to fasting for 10 hours. [ The standard meal is
(§4) instant noodles. The master Kang roast beef noodles (bucket noodles) purchased by the sponsor in a unified manner are removed from the oil bag. The noodles are soaked in boiled water and then removed. The seasoning
(§5) bag is added and mixed well. The time is counted from the first bite of eating. The noodles are eaten within 10 minutes, and 200 mL of water is drunk; or the instant noodles are directly opened with 200 mL of boiled
(§6) water to ensure that the noodles are eaten and the water or soup is drunk]. Visit days when MTT test is performed: 1 day prior to Cycle 1 administration, Day 80 (D80). […]
(§7) ● Test by central laboratory

The subject of series [3] is Chinese patients with T2D. The series is described as follows: Mixed-meal tolerance test (MTT): insulin. Conditions: 1.5 mg once weekly, n=6. The procedure:
as §1
Standard non-compartmental pharmacokinetics methods were used to analyze IBI362 plasma concentration data using Pkanalix 2020R1 (Lixoft, Antony, France). Secondary efficacy outcomes included change from baseline to week 12 in HbA1c, fasting plasma glucose (FPG), fasting insulin levels, change from baseline to week 12 in post-mixed-meal tolerance test (post-MTT) glucose, insulin, C peptide, GLP-1 and OXM levels, as well as seven-point self-measured blood glucose (SMBG) profile. […]
as §2, §3, §4, §5, §6, §7

Another series is described as follows: Waist circumference. The note with it: 1.5 mg once weekly, n=6. From the text: (§8) Exploratory outcomes included change from baseline in body weight, waist circumference, body-mass index (BMI) and change in homeostatic model assessment of β-cell function (HOMA-β) and insulin resistance (HOMA-IR).
Another series is described as follows: Body-mass index (BMI). Conditions: Dulaglutide group; mean.
Source text: as §8

Series [4] relates to Chinese patients with T2D. In words: Homeostatic model assessment of insulin resistance (HOMA-IR). Conditions: 1.5 mg once weekly, n=6.
Source text: as §8

Turning to “Dulaglutide: open-label active reference, subcutaneously once weekly at a fixed dose of 1.5 mg [reference compound]”, the “Change from baseline in ALT, mean” value in series [1] (week 4) is -3.70 U/L; in series [1] (week 8), -4.33 U/L; in series [1] (week 12), -6.92 U/L. Moreover, the figures for the “Change from baseline in AST, mean” value in series [1] (week 4), in series [1] (week 8) and in series [1] (week 12) were 0.83 U/L, 1.53 U/L and 1.58 U/L, respectively. Further, in series [2] (MMRM), the “Percent change from baseline to week 12 in post-MTT glucose AUC0-4 h, LS mean” value is given as -41.70%. Besides, the “Glucose during MTT, mean” value in series [2] (week 12, 0 min) is recorded as 7.18 mmol/L; in series [2] (week 12, 30 min), 9.32 mmol/L; in series [2] (week 12, 60 min) it was 11.86 mmol/L; in series [2] (week 12, 120 min), 9.62 mmol/L; in series [2] (week 12, 180 min) it was 7.11 mmol/L; in series [2] (week 12, 240 min), 6.79 mmol/L. In addition, the “Insulin during MTT, mean” value in series [3] (week 12, 0 min) was 13.40 μU/mL; in series [3] (week 12, 30 min), 30.21 μU/mL; in series [3] (week 12, 60 min) it was 53.77 μU/mL; in series [3] (week 12, 120 min) it was 63.25 μU/mL; in series [3] (week 12, 180 min) it was 30.85 μU/mL; in series [3] (week 12, 240 min), 21.56 μU/mL. For the same substance, in the series “Waist circumference”, the “Change from baseline to week 12 in waist circumference, mean” value is reported as -1.4 cm. Further, in the series “Waist circumference” (single patients), the “Change from baseline to week 12 in waist circumference, individual” value was -0.5 cm and -1.5 cm and -2.6 cm and -4.9 cm and 1.5 cm. In addition, in “Body-mass index (BMI)”, the “Change from baseline to week 12 in BMI” value is -0.19 kg/m2. For the same substance, in series [4], the “Change from baseline to week 12 in HOMA-IR, mean” value is recorded as -1.5. In addition, the “Change from baseline to week 12 in HOMA-IR, individual” value in series [4] (single patients) was 0.346 and 1.1 and -0.8 and -3.0 and -3.5.
